Test results from patent US8865725B2, “Substituted imidazopyrimidin-5(6H)-ones as allosteric modulators of MGLUR5 receptors” (Vanderbilt University, priority 2011, dated 2014).
Read-outs that look alike come from different tables or passages of the source.

Legend:
[1] = target: human mGluR5a receptor (Homo sapiens, UniProt P41594); assay: Cell-based functional assay (Ca2+ mobilization, FDSS) for positive allosteric modulation of mGluR5; settings: for EC50: HEK cells transfected with human mGluR5a (H10H or H12H), potentiation in presence of EC20 glutamate; for Emax: maximum % effect in concentration-response curve, as percent of response to maximally effective glutamate concentration
Chain of human mGluR5a receptor (P41594 21-1180 isoform P41594-2 limits assumed): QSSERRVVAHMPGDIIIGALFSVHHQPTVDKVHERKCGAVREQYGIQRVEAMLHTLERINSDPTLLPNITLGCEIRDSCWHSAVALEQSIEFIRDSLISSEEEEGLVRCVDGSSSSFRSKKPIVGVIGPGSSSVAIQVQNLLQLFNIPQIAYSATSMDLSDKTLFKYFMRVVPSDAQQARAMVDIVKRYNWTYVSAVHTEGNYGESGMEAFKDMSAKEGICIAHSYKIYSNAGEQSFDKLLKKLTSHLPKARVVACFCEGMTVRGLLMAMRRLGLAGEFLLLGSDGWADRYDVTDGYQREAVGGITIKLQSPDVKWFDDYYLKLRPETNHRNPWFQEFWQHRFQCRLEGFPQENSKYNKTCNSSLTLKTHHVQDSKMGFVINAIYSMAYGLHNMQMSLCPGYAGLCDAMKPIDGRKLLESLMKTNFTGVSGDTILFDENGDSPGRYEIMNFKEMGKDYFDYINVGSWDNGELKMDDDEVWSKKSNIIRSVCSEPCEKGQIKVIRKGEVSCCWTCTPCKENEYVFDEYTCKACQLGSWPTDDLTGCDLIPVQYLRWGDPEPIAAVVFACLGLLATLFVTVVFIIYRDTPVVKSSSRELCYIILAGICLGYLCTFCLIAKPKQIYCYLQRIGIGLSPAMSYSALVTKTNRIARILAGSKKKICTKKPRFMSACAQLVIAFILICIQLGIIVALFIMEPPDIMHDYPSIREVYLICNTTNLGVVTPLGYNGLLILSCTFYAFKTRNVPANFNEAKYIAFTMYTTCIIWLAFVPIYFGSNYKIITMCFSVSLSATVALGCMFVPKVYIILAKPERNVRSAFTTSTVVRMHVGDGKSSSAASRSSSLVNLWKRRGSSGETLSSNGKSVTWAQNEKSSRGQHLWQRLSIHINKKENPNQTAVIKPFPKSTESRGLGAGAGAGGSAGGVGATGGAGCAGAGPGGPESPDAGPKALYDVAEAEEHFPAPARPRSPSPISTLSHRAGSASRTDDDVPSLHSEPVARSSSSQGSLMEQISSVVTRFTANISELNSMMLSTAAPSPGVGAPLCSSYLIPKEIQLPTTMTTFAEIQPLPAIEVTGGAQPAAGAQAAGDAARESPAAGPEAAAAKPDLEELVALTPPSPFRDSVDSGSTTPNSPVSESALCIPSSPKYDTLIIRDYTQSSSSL
Description: The mGluR5 activity was determined using the metabotropic glutamate receptor activity assays in human embryonic kidney cells as described herein, wherein the human embryonic kidney cells were transfected with human mGluR5. The compounds in Table I were synthesized with methods identical or analogous to those shown herein. The Synthetic Route Reference indicated in Table I refers to the Reaction Scheme number described above. The requisite starting materials were commercially available, described in the literature, or readily synthesized by one skilled in the art of organic synthesis.
Human mGluR5a cDNA in pCMV6-XL6 mammalian expression plasmid was purchased from OriGene Technologies, Inc. (catalogue number SC326357) and subcloned into pcDNA3.1(−). […] Monoclones were named for the species (“H” for human) plus the location on the plate (e.g. “10H”).
HEK cells transfected with the human mGluR5a receptor (H10H or H12H cell line) were plated at 15,000 cells/well in clear-bottomed poly-D-lysine-coated assay plates (BD Falcon) in glutamate-glutamine-free growth medium and incubated overnight at 37° C. and 5% CO2. Cell-lines used were either the H10H or H12H cell-lines expressing the human mGluR5 receptor. The following day, the growth medium was removed and the cells were washed with assay buffer containing 1× Hank's balanced salt solution (Invitrogen, Carlsbad, Calif.), 20 mM HEPES, 2.5 mM probenecid, pH 7.4 and left with 20 μL of this reagent. Following this step, the cells were loaded with calcium indicator dye, fluo-4 AM, to a final concentration of 2 μM and incubated for 40-45 min at 37° C. The dye solution was removed and replaced with assay buffer. Cell plates were held for 10-15 min at room temperature and were then loaded into the Functional Drug Screening System 6000 (FDSS 6000, Hamamatsu, Japan).
After establishment of a fluorescence baseline for about 3 seconds, the compounds of the present invention were added to the cells, and the response in cells was measured. 2.3 minutes later an EC20 concentration of the mGluR5 receptor agonist glutamate was added to the cells, and the response of the cells was measured for about 1.7 minutes. All test compounds were dissolved and diluted to a concentration of 10 mM in 100% DMSO and then serially diluted into assay buffer for a 2× stock solution in 0.6% DMSO; stock compounds were then added to the assay for a final DMSO concentration of 0.3% after the first addition to the assay well. Calcium fluorescence measures were recorded as fold over basal fluorescence; raw data was then normalized to the maximal response to glutamate.
The concentration-response curves of compounds of the present invention, obtained in the presence of EC20 of mGluR5 receptor agonist glutamate to determine positive allosteric modulation, were generated using Microsoft Excel with IDBS XLfit add-ins. The raw data file containing all time points was used as the data source in the analysis template. This was saved by the FDSS as a tab-delimitted text file. Data were normalized using a static ratio function (F/F0) for each measurement of the total 350 values per well divided by each well's initial value. Data was then reduced as to peak amplitudes (Max—Initial Min) using a time range that starts approximately 1 second after the glutamate EC20 addition and continues for approximately 40 seconds. This is sufficient time to capture the peak amplitude of the cellular Calcium response. Individual amplitudes were expressed as % EMax by multiplying each amplitude by 100 and then dividing the product by the mean of the amplitudes derived from the glutamate ECMax-treated wells. pEC50 values for test compounds were generated by fitting the normalized values versus the log of the test compound concentration (in mol/L) using a 4 parameter logistic equation where none of the parameters were fixed.

[2] = tested on: amphetamine-induced hyperlocomotion; assay: Reversal of amphetamine-induced hyperlocomotion; format: in vivo, male Sprague-Dawley rats; settings: test compound by oral gavage in 20% HP-beta-CD; amphetamine sulfate 1 mg/kg sc; FIG. 4
Description: Locomotor activity was assessed as mean distance traveled (cm) in standard 16×16 photocell testing chambers measuring 43.2 cm (Length)×43.2 cm (Width)×30.5 cm (Height) (Med Associates, St. Albans, Vt.). Animals were habituated to individual activity chambers for at least 30 min prior to drug administration. Following administration of drug or vehicle, activity was recorded for a 90 minute time period. Data was expressed as the mean (±SEM) distance traveled recorded in 5 min intervals over the test period. The data was analyzed using repeated measures analysis of variance (ANOVA) followed by post-hoc testing using Dunnett's test, when appropriate. A difference was considered significant when p≦0.05. […]
The animals were habituated in Smart Open Field locomotor activity test chambers (Hamilton-Kinder, San Diego, Calif.) with 16×16 photobeams to automatically record locomotor activity for 30 min and then dosed with vehicle or test compound. […] At 60 min, all rats were injected subcutaneously with 1 mg/kg amphetamine or vehicle and then monitored for an additional 60 min. Animals are monitored for a total of 120 minutes. Data are expressed as changes in ambulation defined as total number of beam breaks per 5 min periods.
The data for the dose-response studies were analyzed by a between-group analysis of variance. […]

[3] = concentration in mol/L, read-out: pEC50 (converted)

| EC50 ([1]; read-out: EC50) | Emax [1] | melting point | SMILES | EC50 [1, 3] | EC50 ([1]; EC50 (nM)) | reversal of amphetamine-induced hyperlocomotion [2] |
| --- | --- | --- | --- | --- | --- | --- |
| 1860 nM | 49% | 143.6 °C | Cc1cc2nc(COc3ccccc3)cn2c(=O)n1-c1ccc(F)cc1 [compound 28] | 1480 nM |  |  |
| > 30200 nM | 20% | 160.4 °C | Cc1c(COc2ccccc2)nc2n1C(=O)N(c1ccc(F)cc1)CC2 [compound 44, 6-(4-fluoro-phenyl)-3-methyl-2-phenoxymethyl-7,8-dihydro-6H-imidazo[1,2-c]pyrimidin-5-one] |  |  |  |
| > 30200 nM | 59% | > 300 °C | O=c1n(-c2ccc(F)cc2)ccc2nc(COc3cccnc3)cn12 [compound 19] |  |  |  |
|  |  |  | O=C1N(c2ccc(F)cc2)CCc2nc(COc3ccccc3)cn21 [6-(4-fluorophenyl)-2-(phenoxymethyl)-7,8-dihydroimidazo[1,2-c]pyrimidin-5(6H)-one] |  |  | Dose-dependent results for reversal of amphetamine-induced hyperlocomotion |

| SMILES | EC50 ([1]; read-out: EC50) | Emax [1] | melting point | EC50 [1, 3] | EC50 ([1]; EC50 (nM)) | reversal of amphetamine-induced hyperlocomotion [2] |
| --- | --- | --- | --- | --- | --- | --- |
| O=c1n(-c2ccc(F)cc2)ccc2nc(COc3cccc(F)c3)cn12 [compound 6] |  | 73% | 141.1 °C | 214 nM | 224 nM |  |
